From patent EP0189971A2, “Composition containing a thiadiazole derivative and method for treating plants against bacteria” (PALIMPORT LTD., priority 1985, dated 1986)
Read-outs that look alike come from different tables or passages of the source.

Experiments:
Pseudomonas tomato [1] = experiment: Preventative foliage spraying of tomato seedlings in greenhouse; format: in vivo; settings: for Average level of ill seedlings: Cupric acetate 0.15 %, levels 0-5
Description: The trials were carried out against bacterial diseases in the following crops: • a. In pepper - Bacterial spot of pepper (Xanthomonas vesicatoria). • b. In tomatoes - Bacterial specic of tomato (Pseudomonas tomato). • c. In cauliflower - Black rot (Xanthomonas camoestris). • 2. […].
In trials that were carried out in the greenhouse, plants at age of 3 - 5 leaves that were grown in "speedling system", were used. Plants were allowed to grow in the original trays without contact between them.
About 48 hours before the infection, the bacterial pathogen was transferred (for multiplication) to a suitable growth medium (see materials and methods of para I hereinbefore)at optimal temperature until all the medium was covered by bacteria. Then a suspension of bacteria at concentration of 1 x 10' - […] per cm^2 was prepared. The bacterial suspension was sprayed to runoff with a hand sprayer on to the leaves of the test plants. Spraying was made on dry leaves with the addition of carborundum to the spray solution in order to ensure better infection. In trials where the efficacy of the treatments was evaluated in preventative treatments, the application was given a few hours before the bacterial infection.
In the preventative treatments, the products were applied a few hours before the bacterial infection. In the curative treatments, the application was carried out 20 hours after bacterial infection. After application, when plants dried out they were transferred to a fog chamber with controlled conditions.
In trials that were carried out in the greenhouse, the plants were transferred after the application and infection, to control conditions of fogginess and suitable temperatures for bactena, till the end of the trial.
Infection was evaluated in the seedlings according to the following key: 0 = healthy seedling, without symptoms of disease, 5 = complete coverage of the seedling with spots of disease, or dead seedling. The intermediate degrees were given according to the severity of the disease in the leaves.
In tomatoes, several trials were carried out in greenhouse under conditions of fog chamber and artificial infection in order to evaluate the efficacy of Terrazole (trade mark) and copper, in different rates and combinations, in preventing and controlling bacterial diseases specic of tomato caused by Pseudomonastomato.
In one trial, various treatments were examined in prevention of disease, as appears in Table IX.

Pseudomonas tomato [2] = settings: cupric acetate 0.1 %
Description: In all trials, seed disinfection was carried out by dipping the seeds in different chemical solutions. The variable factors were: • 1. Different times of dipping: 10, 20, 30 and 60 minutes. • 2.. Different temperatures of dipping: room temperature (20°C), and a higher temperature (45°C).
(§1) In this method, the efficacy of the disinfection is examined by a bioassay. After seed disinfection, the seeds are dried and sown in the soil, and kept in a humid cell with suitable temperature. The efficacy of the treatment is determined by the level of infestation in the seedlings.
In tomatoes, disinfection trials were carried out against two bacterial diseases. Most of the work was done in order to examine the efficacy of the mixtures in controlling bacterial specic of tomato caused by Pseudomonas tomato. Later on some trials were carried out against a relatively new disease in Israel - "rotten pith" caused by P. coruoata. Trial 7
Also, different dipping times and temperatures were checked. Efficacy of disinfection was evaluated by assessing the disease appearance in the seedlings which was caused by infection of the treated seeds.

[3] = tested on: Pseudomonas tomato, Xanthomonasvesicatoria, X. translucens, X. camoestris; settings: 0.8% cupric acetate in aqueous solution; each of the four species
Description: G. Evaluation of product activity by direct contact with the bacteria: • The efficacy of a number of products by a direct contact with the bacteria was checked as follows: Preparation of solutions of different concentrations of the examined products. Soaked bacteria suspension in the solutions for a period of 10 minutes. Filtration of the solution containing bacteria through milipore disc, so that the bacteria are concentrated on the disc. Rinsing the disc with distilled water. Placing the disc in a measured amount of water with 0.1 % agar, and shaking the disc in this solution in order to transfer the bacteria from the disc to the solution. Making 10x dilutions and direct placing on suitable medium (see section F1 above).
In this trial, 11 concentrations of cupric-acetate in aqueous solution were checked, from 0.001 - 0.8% by weight. […] All treatments were checked against the four species of bacteria mentioned.

X. translucens = settings: for Bacteria per gr. seeds: cupric acetate 0.1%, infected seeds
Description: In this method, live bacterial pathogens that survived the seed disinfection, were counted. Treated seeds were dried by vaporization. Five grams of dried seeds from each treatment were ground in a grinder of 20 mesh and transferred to a solution containing 0.1% agar in water and were shaken for 30 minutes. From each sample, 10x dilutions were prepared. From each of the various dilutions, 0.1 ml was taken and placed in a suitable medium in a petri-dish, with a Drigalski stick. After 4 days of incubation at temperature of 27°C, colonies of the bacterial pathogens were counted in each petri-dish.
The assessment of efficacy was carried out by counting of the number of bacteria that remained alive in the seeds after the disinfection and in a bio-assay system. (See Materials and Methods).
In this trial the efficacy of the products in disinfecting wheat seeds was tested at various periods of time from 5 to 60 minutes. Disinfected seeds were compared with seeds treated with water (check) and with seeds that were defined in laboratory as seeds clean from the pathogen. Efficacy of the treatments was measured by counting the amount of bacteria that remained alive in the seeds. The trial was carried out in five replicates.

X. campestris = settings: for Percent of infected seedlings: cupric acetate 0.1 %
Description: as §1
Trials were carried out in seeds of cabbage and cauliflower infested with Xanthomonas camoestris. […] Seeds were dipped in all treatments for 10 to 20 minutes at temperatures of 25°C and 45°C.
The efficacy of the disinfection process was checked in a bio assay system.

cupric acetate
Percent of ill seedlings (Pseudomonas tomato [1]; Cupric acetate 0.1 %, preventative spraying, ten days after the infection): 34.2%
Average level of ill seedlings (Pseudomonas tomato [1]; 9 days after infection): 0.30
Average level of ill seedlings (Pseudomonas tomato [1]; 11 days after infection): 1.85
Average level of ill seedlings (Pseudomonas tomato [1]; 13 days after infection): 2.80
% Infected plants (Pseudomonas tomato [2]; dipping 10 minutes, 25 °C): 28.0%
Improvement in control, in comparison with the untreated control (Pseudomonas tomato [2]; dipping 10 minutes, 25 °C): 37.8
% Infected plants (Pseudomonas tomato [2]; dipping 10 minutes, 40 °C): 17.0%
Improvement in control, in comparison with the untreated control (Pseudomonas tomato [2]; dipping 10 minutes, 40 °C): 62.2
% Infected plants (Pseudomonas tomato [2]; dipping 20 minutes, 25 °C): 27.5%
Improvement in control, in comparison with the untreated control (Pseudomonas tomato [2]; dipping 20 minutes, 25 °C): 38.9
% Infected plants (Pseudomonas tomato [2]; dipping 20 minutes, 40 °C): 14.0%
Improvement in control, in comparison with the untreated control (Pseudomonas tomato [2]; dipping 20 minutes, 40 °C): 68.9
bacteria remained alive [3]: about 10^3 bacteria per cm^2 of water
Bacteria per gr. seeds (X. translucens; 5 minutes): 6040 b per gr. seeds
Bacteria per gr. seeds (X. translucens; 10 minutes): 2920 b per gr. seeds
Bacteria per gr. seeds (X. translucens; 20 minutes): 496 b per gr. seeds
control in comparison with the untreated seeds (X. translucens; cupric acetate, dipping 20 minutes): 94%
Percent of infected seedlings (X. campestris; 25 °C 10 min.): 78.6%
Percent of infected seedlings (X. campestris; 25 °C 20 min.): 56.0%
Percent of infected seedlings (X. campestris; 40 °C 10 min.): 45.0%
Percent of infected seedlings (X. campestris; 40 °C 20 min.): 35.0%
disease control (X. campestris; cupric acetate, at any of the trial conditions): ≤ 38%
